# Results published in patent EP4667483A1, “HUMAN TRANSFERRIN RECEPTOR-BINDING PEPTIDE” (JCR Pharmaceuticals Co., Ltd., priority 2023, dated 2024).
# Numbered stars: 1 amine (or outer) side, 2 acyl side, 3 side chain; on linkers, the order of the positions; unused ones are H or OH. Bridge positions count the residues as written; N and C are the ends. Square brackets hold non-standard residues; d marks the D form. Side chains are listed from the residue outwards. Peptide text beside a SMILES is read from it. * marks the point of attachment. CH2CO(D-glucamine) = O=C(C*)NC[C@H](O)[C@@H](O)[C@H](O)[C@H](O)CO; NH(1-deoxy-D-glucityl) = OC[C@@H](O)[C@@H](O)[C@H](O)[C@@H](O)CN*; Trp(1-CH2COOH) = N[C@@H](Cc1cn(CC(=O)O)c2ccccc12)C(=O)O; CH2CON(CH2CH2)2NCH2COOH = O=C(O)CN1CCN(C(=O)C*)CC1; NMePhe(4-COOH) = CN[C@@H](Cc1ccc(C(=O)O)cc1)C(=O)O; X1 = O=C([C@H](Cc1cccc(C(=O)[*:3])c1)N[*:1])[*:2]; Nle(6-morpholino) = N[C@@H](CCCCN1CCOCC1)C(=O)O; Trp(7-aza) = N[C@@H](Cc1c[nH]c2ncccc12)C(=O)O; NMePhe(3-Cl) = CN[C@@H](Cc1cccc(Cl)c1)C(=O)O; Piperazinyl(4-CH2COOH) = O=C(O)CN1CCN(*)CC1; 3Pal(6-NH2) = Nc1ccc(C[C@H](N)C(=O)O)cn1; NMeW = CN[C@@H](Cc1c[nH]c2ccccc12)C(=O)O; X6 = Cc1cc(C[C@H](N[*:1])C(=O)[*:2])ccn1; NMeY = CN[C@@H](Cc1ccc(O)cc1)C(=O)O; Nva(3-Et) = CCC(CC)[C@H](N)C(=O)O; NMeF = CN[C@@H](Cc1ccccc1)C(=O)O; 4Pal = N[C@@H](Cc1ccncc1)C(=O)O; PEG4 = NCCOCCOCCOCCOCCC(=O)O; Carboxymethyl = O=C(O)C*; CO = O=C([*:1])[*:2]
# What was measured:
# [1] = molecular target: T1, human transferrin receptor (hTfR) (Homo sapiens, UniProt P02786); assay: SPR measurement under pH 6.0 conditions (Biacore T200, NTA chip, immobilized hTfR); format: binding; details: SPR, pH 6.0, read-out: hTfR SPR pH6.0 KD
# Experimental: (§1) Molecular interactions between the synthesized peptides and the transferrin receptor (hTfR) were evaluated by surface plasmon resonance (SPR) using the following method. The specific assay procedure is described below.
# An NTA sensor chip (Cytiva) was inserted in a Biacore T200 (Cytiva), a priming operation was performed 3 times with a running buffer: HBS-P+ pH 6.0 (Cytiva), and an equilibrium state was created at a flow rate of 30 µL/min. A ligand immobilization operation was carried out at a flow rate of 10 µL/min.
# The surface of the NTA sensor chip was washed with 350 mM EDTA solution, nickel ions were loaded into the carbomethyldextran chains of the sensor chip with a 500 µM aqueous nickel chloride solution, and then washing was performed with 3 mM EDTA solution. After mixing 50 µL of each of 60 mM EDC solution (Cytiva) and 650 mM NHS solution (Cytiva), the mixture was reacted for 420 seconds at a flow rate of 10 µL/min. 150 µL of 0.2 µM hTfR solution was prepared by diluting with 10 mM acetic acid solution (pH 5.0), and reacted for 420 seconds at a flow rate of 10 µL/min to immobilize hTfR on the NTA sensor chip. For the human transferrin receptor (hTfR), the recombinant hTfR described in Example 2 of WO2018/124121 was used. After immobilization, capping was performed by reacting with 1.0 M ethanolamine aqueous solution (Cytiva) at a flow rate of 10 µL/min for 420 seconds. Peptide lysate prepared in DMSO to 10 mM was diluted with the running buffer to a final concentration of 10 µM peptide lysate, and then peptide solutions of 250 nM, 125 nM, 62.5 nM, 25 nM, and 12.5 nM were prepared. The kinetics of the peptide against hTfR was obtained by SPR measurement using the above samples.
# (§2) The kinetic evaluation model was single-cycle kinetics, and curve fitting was performed using Biacore T200 Evaluation Software Version 3.0 (Cytiva). The binding of the peptide to hTfR was evaluated by performing curve fitting on the obtained sensorgram by the least squares method and obtaining the kon value, the koff value, and the KD value.
# [2] = molecular target: T1, human transferrin receptor (hTfR); assay: SPR measurement under pH 7.4 conditions (Biacore T200, CM3 chip, hTfR captured by His Tag antibody); format: binding
# Experimental: as §1
# An CM3 sensor chip (Cytiva) was inserted into BiacoreT200 (Cytiva), then a priming operation was performed three times by using a running buffer: HBS-P+, pH7.4 (Cytiva), and an equilibrium state was created at a flow rate of […]. Ligand immobilization was performed at a flow rate of 10 µL/min. After mixing 50 µL each of 60 mM EDC solution (Cytiva) and 650 mM NHS solution (Cytiva), the mixture was reacted at a flow rate of 10 µL/min for 420 seconds. 150 µL of […] THE His Tag Antibody, mAb, Mouse (GenScript) was prepared by diluting with 10 mM acetic acid solution (pH 5.0), and reacted at a flow rate of 10 µL/ min for 420 seconds. Then, THE His Tag Antibody, mAb, Mouse (GenScript) was immobilized as a capture molecule on the CM3 sensor chip. After immobilization, capping was performed by reacting with 1.0 M ethanolamine solution (Cytiva) at a flow rate of 10 µL/min for 420 seconds. 300 nM hTfR was captured at a flow rate of 10 µL/min, a peptide solution prepared at 10 mM in DMSO was diluted with running buffer to achieve a final concentration of 10 µM, and peptide solutions at 250 nM, 125 nM, 62.5 nM, 25 nM, and 12.5 nM were prepared. . The peptide samples were reacted at a flow late of 30 µL/min for 120 seconds, followed by dissociation for 600 seconds. The kinetics of the peptide against hTfR was obtained by SPR measurement for the above samples.
# as §2
# [3] = SPR, pH 7.4, Table 2-2, read-out: hTfR SPR pH7.4 KD
# [4] = SPR, pH 7.4, Table 2-1-2, read-out: hTfR SPR pH7.4 KD(n M)
# T1 sequence (P02786 whole entry): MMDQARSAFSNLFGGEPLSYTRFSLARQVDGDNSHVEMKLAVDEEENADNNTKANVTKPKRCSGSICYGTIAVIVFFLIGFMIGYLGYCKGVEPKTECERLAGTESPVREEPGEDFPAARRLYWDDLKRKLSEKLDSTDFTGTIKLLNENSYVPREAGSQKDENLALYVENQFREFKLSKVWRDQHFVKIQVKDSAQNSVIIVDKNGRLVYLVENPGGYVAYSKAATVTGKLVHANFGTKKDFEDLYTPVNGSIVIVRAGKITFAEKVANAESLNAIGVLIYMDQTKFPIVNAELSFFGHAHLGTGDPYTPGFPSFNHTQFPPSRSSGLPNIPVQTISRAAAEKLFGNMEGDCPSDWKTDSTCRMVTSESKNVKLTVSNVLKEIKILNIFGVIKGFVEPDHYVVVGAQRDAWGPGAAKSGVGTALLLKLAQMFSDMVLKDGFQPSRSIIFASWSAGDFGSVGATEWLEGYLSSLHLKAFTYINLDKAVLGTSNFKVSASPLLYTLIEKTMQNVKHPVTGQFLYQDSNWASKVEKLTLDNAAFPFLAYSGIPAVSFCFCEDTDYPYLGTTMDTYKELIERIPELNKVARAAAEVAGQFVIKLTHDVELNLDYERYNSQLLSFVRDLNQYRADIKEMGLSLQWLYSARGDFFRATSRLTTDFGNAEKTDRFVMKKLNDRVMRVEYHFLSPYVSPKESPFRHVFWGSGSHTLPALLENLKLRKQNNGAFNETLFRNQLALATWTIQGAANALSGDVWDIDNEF
structure (smiles),measurement,setting,value
CCC(CC)[C@@H]1NC(=O)[C@H](Cc2ccc(OCC(=O)O)cc2)NC(=O)[C@H](Cc2ccc(O)cc2)NC(=O)[C@H](CC(N)=O)NC(=O)[C@H](Cc2cn(CC(=O)O)c3ccccc23)NC(=O)[C@H](C(C)C)NC(=O)[C@H](Cc2cccc(Cl)c2)N(C)C(=O)[C@H](C(C)C)NC(=O)[C@H](C)NC(=O)CSC[C@@H](C(=O)NCCOCCOCCOCCOCCC(N)=O)NC(=O)[C@H](Cc2ccc(O)cc2)N(C)C(=O)[C@H](Cc2ccnc(C)c2)NC(=O)[C@H](CCCNC(=N)N)NC(=O)[C@H](CCC(N)=O)NC(=O)[C@H]([C@@H](C)CC)NC1=O [compound 152] ({CH2CO}-AV[NMePhe(3-Cl)]V[Trp(1-CH2COOH)]NYY(Carboxymethyl)[Nva(3-Et)]IQR[X6][NMeY]C[PEG4]-NH2; thioether N-15),Kd,[1]; Table 2-1-2,116 nM
CC[C@H](C)[C@@H]1NC(=O)[C@H](Cc2ccc(O)cc2)NC(=O)[C@H](Cc2ccc(O)cc2)NC(=O)[C@H](CC(N)=O)NC(=O)[C@H](Cc2c[nH]c3ccccc23)N(C)C(=O)[C@H](C(C)C)NC(=O)[C@H](Cc2cccnc2)N(C)C(=O)[C@H](C(C)C)NC(=O)[C@H](C)NC(=O)CSC[C@@H](C(=O)NCCOCCOCCOCCOCCC(N)=O)NC(=O)[C@H](Cc2ccc(O)cc2)N(C)C(=O)[C@H](Cc2ccc(O)cc2)NC(=O)[C@H](CCCNC(=N)N)NC(=O)[C@H](CCCCN)NC(=O)[C@H]([C@@H](C)CC)NC1=O [compound 135],Kd,[1]; peptide with the linker named in the table,15.3 nM
CC[C@H](C)[C@@H]1NC(=O)[C@H](Cc2ccc(O)cc2)NC(=O)[C@H](Cc2ccc(O)cc2)NC(=O)[C@H](CC(N)=O)NC(=O)[C@H](Cc2c[nH]c3ccccc23)N(C)C(=O)[C@H](C(C)C)NC(=O)[C@H](Cc2ccccc2)N(C)C(=O)[C@H](C(C)C)NC(=O)[C@H](C)NC(=O)CSC[C@@H](C(=O)NCCOCCOCCOCCOCCC(N)=O)NC(=O)[C@H](Cc2ccc(C(=O)O)cc2)N(C)C(=O)[C@H](Cc2cccc(C(=O)NCCOCCOCCOCCOCCC(=O)O)c2)NC(=O)[C@H](CCCNC(=N)N)NC(=O)[C@H](CCCCN)NC(=O)[C@H]([C@@H](C)CC)NC1=O [compound 121] ({CH2CO}-AV[NMeF]V[NMeW]NYYIIKR[X1](PEG4)[NMePhe(4-COOH)]C[PEG4]-NH2; thioether N-15),Kd,"[2]; SPR, pH 7.4, peptide with the linker named in the table, read-out: hTfR SPR pH7.4 KD",1.84 nM
CC[C@H](C)[C@@H]1NC(=O)[C@H](Cc2ccc(OC)cc2)NC(=O)[C@H](Cc2ccc(N)nc2)NC(=O)[C@H](CC(N)=O)NC(=O)[C@H](Cc2cnc3ccccn23)NC(=O)[C@H](C(C)C)NC(=O)[C@H](Cc2cccc(Cl)c2)N(C)C(=O)[C@H](C(C)C)NC(=O)[C@H](C)NC(=O)CSC[C@@H](C(=O)NCC(=O)N[C@H](CCC(=O)O)C(=O)N[C@H](CCC(=O)O)C(=O)N[C@H](CCC(=O)O)C(=O)N[C@H](CO)C(=O)N[C@H](CO)C(=O)N[C@@H](CCCCN=[N+]=[N-])C(N)=O)NC(=O)[C@H](Cc2ccc(C(=O)O)cc2)N(C)C(=O)[C@H](Cc2ccncc2)NC(=O)[C@H](CCCNC(=N)N)NC(=O)[C@H](CCCNC(=N)N)NC(=O)[C@H]([C@@H](C)CC)NC1=O [compound 200],Kd,[2]; [3],81.6 nM
CC[C@H](C)[C@@H]1NC(=O)[C@H](Cc2ccc(OCC(=O)N3CCN(CC(=O)O)CC3)cc2)NC(=O)[C@H](Cc2ccc(N)nc2)NC(=O)[C@H](CC(N)=O)NC(=O)[C@H](Cc2cn(CC(=O)O)c3ccccc23)NC(=O)[C@H](C(C)C)NC(=O)[C@H](Cc2cccc(Cl)c2)N(C)C(=O)[C@H](C(C)C)NC(=O)[C@H](C)NC(=O)CSC[C@@H](C(=O)NCCOCCOCCOCCOCCC(N)=O)NC(=O)[C@H](Cc2ccc(O)cc2)N(C)C(=O)[C@H](Cc2ccncc2)NC(=O)[C@H](CCCNC(=N)N)NC(=O)[C@H](CCCCNC(=O)N2CCN(CC(=O)O)CC2)NC(=O)[C@H]([C@@H](C)CC)NC1=O [compound 158] ({CH2CO}-AV[NMePhe(3-Cl)]V[Trp(1-CH2COOH)]N[3Pal(6-NH2)]Y(CH2CON(CH2CH2)2NCH2COOH)IIK([CO-Piperazinyl(4-CH2COOH)])R[4Pal][NMeY]C[PEG4]-NH2; thioether N-15),Kd,[2]; [4],20.2 nM
CC[C@H](C)[C@@H]1NC(=O)[C@H](Cc2ccc(OC)cc2)NC(=O)[C@H](Cc2ccc(N)nc2)NC(=O)[C@H](CC(N)=O)NC(=O)[C@H](Cc2cnc3ccccn23)NC(=O)[C@H](C(C)C)NC(=O)[C@H](Cc2ccccc2)N(C)C(=O)[C@H](C(C)C)NC(=O)[C@H](C)NC(=O)CSC[C@@H](C(=O)NCC(=O)N[C@H](CCC(=O)O)C(=O)N[C@H](CCC(=O)O)C(=O)N[C@H](CCC(=O)O)C(=O)N[C@H](CO)C(=O)N[C@H](CO)C(=O)N[C@@H](CCCCN=[N+]=[N-])C(N)=O)NC(=O)[C@H](Cc2ccc(C(=O)O)cc2)N(C)C(=O)[C@H](Cc2ccncc2)NC(=O)[C@H](CCCNC(=N)N)NC(=O)[C@H](CCCNC(=N)N)NC(=O)[C@H]([C@@H](C)CC)NC1=O [compound 201],Kd,[2]; [3],212 nM
CC[C@H](C)[C@@H]1NC(=O)[C@H](Cc2ccc(OCC(=O)N3CCN(CC(=O)O)CC3)cc2)NC(=O)[C@H](Cc2ccc(N)nc2)NC(=O)[C@H](CC(N)=O)NC(=O)[C@H](Cc2cn(CC(=O)O)c3ccccc23)NC(=O)[C@H](C(C)C)NC(=O)[C@H](Cc2cccc(Cl)c2)N(C)C(=O)[C@H](C(C)C)NC(=O)[C@H](C)NC(=O)CSC[C@@H](C(=O)NCCOCCOCCOCCOCCC(N)=O)NC(=O)[C@H](Cc2ccc(O)cc2)N(C)C(=O)[C@H](Cc2ccncc2)NC(=O)[C@H](CCCNC(=N)N)NC(=O)[C@H](CCC(=O)NCCOCCOCCOCCOCCOCCOCCOCCOC)NC(=O)[C@H]([C@@H](C)CC)NC1=O [compound 160],Kd,[2]; [4],20.8 nM
CC[C@H](C)[C@@H]1NC(=O)[C@H](Cc2ccc(OCC(=O)NC[C@H](O)[C@@H](O)[C@H](O)[C@H](O)CO)cc2)NC(=O)[C@H](Cc2ccc(N)nc2)NC(=O)[C@H](CC(N)=O)NC(=O)[C@H](Cc2c[nH]c3ncccc23)NC(=O)[C@H](C(C)C)NC(=O)[C@H](Cc2cccc(Cl)c2)N(C)C(=O)[C@H](C(C)C)NC(=O)[C@H](C)NC(=O)CSC[C@@H](C(=O)NCCOCCOCCOCCOCCC(N)=O)NC(=O)[C@H](Cc2ccc(O)cc2)N(C)C(=O)[C@H](Cc2ccncc2)NC(=O)[C@H](CCCCN2CCOCC2)NC(=O)[C@H](CCC(=O)NC[C@H](O)[C@@H](O)[C@H](O)[C@H](O)CO)NC(=O)[C@H]([C@@H](C)CC)NC1=O [compound 13] ({CH2CO}-AV[NMePhe(3-Cl)]V[Trp(7-aza)]N[3Pal(6-NH2)]Y(CH2CO(D-glucamine))IIE(NH(1-deoxy-D-glucityl))[Nle(6-morpholino)][4Pal][NMeY]C[PEG4]-NH2; thioether N-15),Kd,"[2]; pH 7.4, single-cycle kinetics, read-out: hTfR SPR pH7.4 KD",11.4 nM
CC[C@H](C)[C@@H]1NC(=O)[C@H](Cc2ccc(OCC(=O)N3CCN(CC(=O)O)CC3)cc2)NC(=O)[C@H](Cc2ccc(N)nc2)NC(=O)[C@H](CC(N)=O)NC(=O)[C@H](Cc2c[nH]c3ncccc23)NC(=O)[C@H](C(C)C)NC(=O)[C@H](Cc2cccc(Cl)c2)N(C)C(=O)[C@H](C(C)C)NC(=O)[C@H](C)NC(=O)CSC[C@@H](C(=O)NCCOCCOCCOCCOCCC(N)=O)NC(=O)[C@H](Cc2ccc(O)cc2)N(C)C(=O)[C@H](Cc2ccncc2)NC(=O)[C@H](CCCNC(=N)N)NC(=O)[C@H](CCCCNC(=O)N2CCN(CC(=O)O)CC2)NC(=O)[C@H]([C@@H](C)CC)NC1=O [compound 156] ({CH2CO}-AV[NMePhe(3-Cl)]V[Trp(7-aza)]N[3Pal(6-NH2)]Y(CH2CON(CH2CH2)2NCH2COOH)IIK([CO-Piperazinyl(4-CH2COOH)])R[4Pal][NMeY]C[PEG4]-NH2; thioether N-15),Kd,[2]; [4],16 nM
